The results in this text go back to EP1304101A1, “Composition and method for use of pyridinium derivatives in cosmetic and therapeutic applications” (Torrent Pharmaceuticals Ltd, priority 2001, dated 2003).

This experiment is described as follows: Free radical scavenging activity on ABTS radical cation (absorbance at 730nm). It counts as biochemical. The procedure: This method measures the relative ability of free radical scavenging substances to scavenge the ABTS ^.+ i.e. 2,2-Azino-bis-(3-ethyl benzo thiazoline-6-sulfonate) radical cation as compared to a standard amount of standard or free radical scavengers antioxidants. Incubation of ABTS with Peroxidase (metmyoglobin) and hydrogen peroxide results in the production of radical cation ABTS^.+ . This species is blue- green in colour and can be detected at 730nm. Antioxidants or free radical scavengers in the added sample that causes suppression of the color to a degree that is proportional to their concentration.
• A. Phosphate Citrate Buffer (pH 5.0): 48.5ml of 0.1M citric acid with sufficient 0.2M disodium hydrogen phosphate to produce 100 ml. • B. Phosphate Buffer Saline (PBS): Dissolve 40.0g of NaCl, 1.0g of KCI, 1.0g of KH2PO4 and 3.05g of Na2HPO4 in 1 litre milli-Q water. Dilute 200ml of above solution to 1 litre with milli-Q water (pH 7.4-7.6). • C. 3µM stock solution of Peroxidase was prepared in phosphate buffer saline pH 7.4(PBS). • D. 1.08 mM stock solution of Hydrogen peroxide was prepared in phosphate buffer saline pH 7.4 (PBS).
1 tablet (10mg) was dissolved in phosphate citrate buffer (pH 5.0).
5.0ml of ABTS stock solution was diluted with PBS to 20 ml.
320 µg of the enzyme was dissolved in 2.5 ml of PBS.
12µl of Hydrogen Peroxide (30%w/v) was diluted to 100ml with PBS.
0.1mM of stock solution of the drug was prepared which was serially diluted in PBS to get solutions of different concentrations.
To 18ml of ABTS stock solution, 100µl of Horseradish Peroxidase stock solution was added.
As soon as 1.5 ml of hydrogen peroxide solution was added to the above solution, blue-green colour of the ABTS radicals appeared. This solution was incubated at 30°C for 30 min.
980µl of ABTS radical stock solution was added to an eppendorf tube. To it was added 100µl of various PBS solution.
980µl of ABTS radical stock solutions were added to different eppendorf tubes. To it were added 100µl of various concentrations of drug solution.
The absorbance of control and test samples was recorded immediately at 730nm taking PBS as blank.
Calculation: The percent antioxidant activity was calculated according to the formula: % Antioxidant activity = [O.D of test sample/O.D of control*100]-100.

For `O=C(NCCOC(=O)c1ccccc1)c1ccc[n+](CC(=O)c2ccc(Cl)cc2Cl)c1.[Br-]` [Compound 8, 1-(2-(2',4'-dichlorophenyl) -2-oxoethyl) -3-(2-(benzoyloxy)ethylamino-carbonyl) pyridinium bromide], the “Relative Free Radical Scavenging Activity(%) on ABTS” value (11.5µM) was determined as 40.8%; the “Relative Free Radical Scavenging Activity(%) on ABTS” value (23.0µM) was found to be 53.7%; the “Relative Free Radical Scavenging Activity(%) on ABTS” value (46.0µM) amounted to 72.6%; the “Relative Free Radical Scavenging Activity(%) on ABTS” value (92.5µM) turned out to be 81.2%; the “Relative Free Radical Scavenging Activity(%) on ABTS” value (925µM) worked out at 100%.

Regarding `O=C(NCCOC(=O)c1ccccc1)c1cc[n+](CC(=O)c2cccs2)cc1.[Br-]` [Compound 18, 1-(2-thien-2'-yl-2-oxoethyl)-4-(2-(benzoyloxy)ethylaminocarbonyl) pyridinium bromide], the “Relative Free Radical Scavenging Activity(%) on ABTS” value was found to be 41.8% (11.5µM); 59.5% (23.0µM); 75.2% (46.0µM); 91.0% (92.5µM); 100% (925µM).

As to `Cc1ccc(S(=O)(=O)NNC(=O)c2ccc[n+](CC(=O)Nc3ccccc3)c2)cc1.[Cl-]` [Compound 27, 1-(2-phenylamino-2-oxoethyl)-3-((4-methylphenyl)sulfonyl hydrazinocarbonyl) pyridinium chloride], the “Relative Free Radical Scavenging Activity(%) on ABTS” value came to 43.9% (11.5µM); 55.5% (23.0µM); 75.3% (46.0µM); 99.6% (92.5µM); 100% (925µM).

Take `O=C(C[n+]1cccc(C(=O)NNS(=O)(=O)Cc2ccccc2)c1)c1ccccc1.[Br-]` [Compound 31, 1-(2-phenyl-2-oxoethyl)-3-((phenylmethyl)sulfonyl hydrazinocarbonyl) pyridinium bromide]: the “Relative Free Radical Scavenging Activity(%) on ABTS” value is 41.6% (11.5µM); 57.7% (23.0µM); 66.9% (46.0µM); 99.2% (92.5µM); 100% (925µM).

As for `O=C(CCC1CCCCC1)NNC(=O)c1ccc[n+](CC(=O)c2cccs2)c1.[Br-]` [Compound 34, 1-(2-thien-2'-yl-2-oxoethyl)-3-((2-(1-oxo-3-cyclohexyl)-ethyl)-hydrazinocarbonyl)-pyridinium bromide], the “Relative Free Radical Scavenging Activity(%) on ABTS” value by setting is: (11.5µM) 50.3%; (23.0µM) 53.8%; (46.0µM) 65.4%; (92.5µM) 80.4%; (925µM) 100%.

`O=C1CCCC(CCNNC(=O)c2ccc[n+](CC(=O)Nc3ccccc3)c2)C1.[Br-]` (centres unmarked) [Compound 35, 1-(2-phenylamino-2-oxoethyl)-3-({2-(1-oxo-3-cyclohexyl)-ethyl} -hydrazinocarbonyl}-pyridinium bromide]: the “Relative Free Radical Scavenging Activity(%) on ABTS” value came out at 50.5% (11.5µM); 63.4% (23.0µM); 80.9% (46.0µM); 90.6% (92.5µM); 100% (925µM).

As for `O=C(NCCOC(=O)c1ccccc1)c1ccc[n+](CC(=O)c2cccs2)c1.[Br-]` [Compound 36, 1-(2-thien-2'-yl-2-oxoethyl)-3-[2-(benzoyloxy)ethylaminocarbonyl]-pyridinium bromide], the “Relative Free Radical Scavenging Activity(%) on ABTS” value is 27.6% (11.5µM); 59.2% (23.0µM); 74.2% (46.0µM); 83.9% (92.5µM); 100% (925µM).
